Values joined by “and” are separate entries in the source; they are usually repeats but may differ in a detail not shown here. Identical values can stand only once. Like-named read-outs stand apart in the source and are kept apart here.
Experiments:
Rat recombinant TRPV3 = target: T1, Rat recombinant TRPV3 (Rattus norvegicus, UniProt Q4QYD9); experiment: cell-based; assay type: cell-based; conditions: for EC50: read-out: TRPV3 Potency EC50; for IC50: vs thymol 100μM, read-out: TRPV3 IC50 for antagonism or desensitization
T1 construct: expressed in transfected cells; host or cells: HEK293 (TRPV3-HEK-293, gift from HB Bradshaw, Indiana University)
T1 sequence (Q4QYD9 1-791): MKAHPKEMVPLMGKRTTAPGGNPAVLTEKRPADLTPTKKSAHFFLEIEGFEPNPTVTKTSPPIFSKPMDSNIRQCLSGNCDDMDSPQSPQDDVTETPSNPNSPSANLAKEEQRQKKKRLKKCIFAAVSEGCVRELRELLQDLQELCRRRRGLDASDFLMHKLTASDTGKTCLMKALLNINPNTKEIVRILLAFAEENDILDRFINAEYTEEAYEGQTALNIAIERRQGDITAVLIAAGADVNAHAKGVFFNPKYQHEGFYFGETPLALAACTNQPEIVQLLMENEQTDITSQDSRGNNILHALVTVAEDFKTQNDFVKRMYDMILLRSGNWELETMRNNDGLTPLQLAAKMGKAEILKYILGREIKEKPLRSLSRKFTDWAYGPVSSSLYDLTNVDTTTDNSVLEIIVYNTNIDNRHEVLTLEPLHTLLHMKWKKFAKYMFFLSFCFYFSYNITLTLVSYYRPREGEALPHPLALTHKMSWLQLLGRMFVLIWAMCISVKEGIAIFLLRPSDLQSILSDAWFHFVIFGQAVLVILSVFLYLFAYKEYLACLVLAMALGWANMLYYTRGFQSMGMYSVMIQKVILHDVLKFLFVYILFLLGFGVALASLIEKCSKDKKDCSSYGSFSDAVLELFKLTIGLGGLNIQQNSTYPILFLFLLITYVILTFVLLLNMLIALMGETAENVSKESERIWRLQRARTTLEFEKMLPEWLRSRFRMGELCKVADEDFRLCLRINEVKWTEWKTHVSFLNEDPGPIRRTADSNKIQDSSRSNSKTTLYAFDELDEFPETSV

Rat recombinant TRPA1 = target: T2, Rat recombinant TRPA1 (Rattus norvegicus, UniProt Q6RI86); experiment: cell-based; assay type: cell-based; conditions: for EC50: read-out: TRPA1 Potency EC50; for IC50: vs AITC 100μM, 5 min pre-incubation, read-out: TRPA1 IC50 for antagonism or desensitization
T2 construct: expressed in transfected cells

beta 1 (h) = target: T3, beta 1 (h) (Homo sapiens, UniProt P08588); experiment: biochemical; assay type: binding; conditions: for % inhibition beta 1 (h): 10 µM
T3 construct: CEREP
T3 sequence (P08588 whole entry): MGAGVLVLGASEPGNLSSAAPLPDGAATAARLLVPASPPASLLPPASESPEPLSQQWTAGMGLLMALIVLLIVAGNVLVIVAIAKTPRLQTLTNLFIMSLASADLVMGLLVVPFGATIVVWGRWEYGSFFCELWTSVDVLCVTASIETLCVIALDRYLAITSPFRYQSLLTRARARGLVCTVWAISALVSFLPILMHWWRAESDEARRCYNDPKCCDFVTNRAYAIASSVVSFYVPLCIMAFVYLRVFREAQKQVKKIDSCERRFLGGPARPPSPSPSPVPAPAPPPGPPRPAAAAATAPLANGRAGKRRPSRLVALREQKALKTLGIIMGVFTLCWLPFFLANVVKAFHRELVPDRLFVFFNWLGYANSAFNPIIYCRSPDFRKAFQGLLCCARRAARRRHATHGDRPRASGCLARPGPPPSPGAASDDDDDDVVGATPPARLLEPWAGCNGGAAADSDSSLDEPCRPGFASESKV

[1] = 1 μM
Human recombinant TRPV1 = target: T4, Human recombinant TRPV1 (Homo sapiens, UniProt Q8NER1); experiment: cell-based; assay type: cell-based; conditions: for EC50: read-out: TRPV1 Potency EC50
T4 construct: expressed in transfected cells; host or cells: HEK293 (TRPV1-HEK-293, gift from John Davis, GlaxoSmithKline)

[2] = 1 μM; remark: listed apart in the source
Na+ channel (site 2) = assay type: binding; conditions: 10 µM
[3] = 1 μM; remark: listed apart in the source
AR (h) = experiment: CEREP panel; assay type: binding, human; conditions: 10 µM
PCP = assay type: binding; conditions: 10 µM
mouse P-gp = mouse P-gp (Mus musculus, UniProt P21447); conditions: efflux ratio
mouse P-gp, sequence (P21447 whole entry): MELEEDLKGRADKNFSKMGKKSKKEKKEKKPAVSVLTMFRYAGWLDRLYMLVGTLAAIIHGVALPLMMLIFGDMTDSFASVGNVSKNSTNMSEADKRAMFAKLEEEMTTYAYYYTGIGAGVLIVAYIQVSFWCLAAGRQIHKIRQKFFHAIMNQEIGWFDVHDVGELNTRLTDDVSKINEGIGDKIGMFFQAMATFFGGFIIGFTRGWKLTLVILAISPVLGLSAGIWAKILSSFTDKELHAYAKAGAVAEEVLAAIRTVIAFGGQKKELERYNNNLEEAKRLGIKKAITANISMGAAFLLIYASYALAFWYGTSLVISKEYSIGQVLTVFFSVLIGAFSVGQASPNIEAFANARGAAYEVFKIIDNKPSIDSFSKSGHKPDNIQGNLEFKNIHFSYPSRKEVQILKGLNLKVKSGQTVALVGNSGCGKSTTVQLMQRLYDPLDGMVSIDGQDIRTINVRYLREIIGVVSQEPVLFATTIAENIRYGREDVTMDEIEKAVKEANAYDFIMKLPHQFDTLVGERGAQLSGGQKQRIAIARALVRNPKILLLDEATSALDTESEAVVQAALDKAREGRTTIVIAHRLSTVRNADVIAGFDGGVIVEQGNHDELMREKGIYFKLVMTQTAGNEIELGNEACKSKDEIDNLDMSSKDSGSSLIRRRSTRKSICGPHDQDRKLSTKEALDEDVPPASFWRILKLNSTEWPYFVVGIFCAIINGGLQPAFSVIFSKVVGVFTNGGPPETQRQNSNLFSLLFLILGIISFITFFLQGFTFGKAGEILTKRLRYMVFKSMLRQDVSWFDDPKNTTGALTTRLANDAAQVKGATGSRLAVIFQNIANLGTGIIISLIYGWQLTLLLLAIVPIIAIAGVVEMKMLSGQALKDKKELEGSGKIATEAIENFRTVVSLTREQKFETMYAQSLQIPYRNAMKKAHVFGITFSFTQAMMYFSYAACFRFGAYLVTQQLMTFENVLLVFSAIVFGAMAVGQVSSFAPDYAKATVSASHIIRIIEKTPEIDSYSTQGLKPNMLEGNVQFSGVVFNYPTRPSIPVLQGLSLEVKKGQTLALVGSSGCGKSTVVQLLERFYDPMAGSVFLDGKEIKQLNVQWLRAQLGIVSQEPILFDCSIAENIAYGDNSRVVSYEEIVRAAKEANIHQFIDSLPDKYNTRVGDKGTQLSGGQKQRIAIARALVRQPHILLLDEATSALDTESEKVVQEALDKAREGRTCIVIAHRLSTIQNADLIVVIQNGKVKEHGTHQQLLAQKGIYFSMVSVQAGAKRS

[4] = logD distribution coefficient
mCB1R = target: T5, mCB1R (Mus musculus, UniProt P47746); experiment: biochemical; assay type: binding
T5 construct: from tissue; host or cells: brain of male C57BL/6J mice
T5 sequence (P47746 whole entry): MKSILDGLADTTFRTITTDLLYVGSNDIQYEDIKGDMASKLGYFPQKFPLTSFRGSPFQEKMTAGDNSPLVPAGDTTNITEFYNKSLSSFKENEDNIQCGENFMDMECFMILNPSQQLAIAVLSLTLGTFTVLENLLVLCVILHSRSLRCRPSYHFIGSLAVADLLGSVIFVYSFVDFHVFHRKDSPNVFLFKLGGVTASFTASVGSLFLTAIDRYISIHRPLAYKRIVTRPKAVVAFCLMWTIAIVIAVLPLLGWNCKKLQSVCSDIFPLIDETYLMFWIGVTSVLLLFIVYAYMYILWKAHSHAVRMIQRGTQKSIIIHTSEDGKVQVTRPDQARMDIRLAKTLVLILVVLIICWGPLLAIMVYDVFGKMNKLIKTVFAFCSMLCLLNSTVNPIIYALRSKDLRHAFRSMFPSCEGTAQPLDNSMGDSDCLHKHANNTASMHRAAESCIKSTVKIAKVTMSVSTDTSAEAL

[5] = target: T6, norepinephrine transporter (h) (Homo sapiens, UniProt P23975); experiment: biochemical; assay type: binding; conditions: for % inhibition norepinephrine transporter (h): 10 µM
T6 construct: CEREP (contract assay)
T6 sequence (P23975 whole entry): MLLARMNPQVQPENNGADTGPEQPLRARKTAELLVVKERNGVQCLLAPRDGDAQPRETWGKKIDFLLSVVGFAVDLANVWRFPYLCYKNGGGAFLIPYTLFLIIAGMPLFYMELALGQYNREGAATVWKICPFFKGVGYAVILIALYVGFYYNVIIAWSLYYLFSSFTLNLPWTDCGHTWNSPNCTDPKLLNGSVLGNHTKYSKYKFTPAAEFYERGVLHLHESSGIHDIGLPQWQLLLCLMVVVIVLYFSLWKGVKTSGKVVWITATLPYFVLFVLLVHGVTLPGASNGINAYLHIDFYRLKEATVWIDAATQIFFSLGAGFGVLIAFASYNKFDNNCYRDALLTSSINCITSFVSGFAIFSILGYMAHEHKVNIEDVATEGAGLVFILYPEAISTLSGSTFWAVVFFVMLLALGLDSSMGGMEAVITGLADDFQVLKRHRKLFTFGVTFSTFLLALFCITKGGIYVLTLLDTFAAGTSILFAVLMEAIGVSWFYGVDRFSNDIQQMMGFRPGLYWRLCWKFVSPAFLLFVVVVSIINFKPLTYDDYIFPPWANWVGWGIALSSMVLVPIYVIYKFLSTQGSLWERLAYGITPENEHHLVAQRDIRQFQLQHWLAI

A3 (h) = target: T7, A3 (h) (Homo sapiens, UniProt P0DMS8); experiment: CEREP panel; assay type: binding; conditions: for % inhibition A3 (h): 10 µM
T7 construct: CEREP
T7 sequence (P0DMS8 1-318): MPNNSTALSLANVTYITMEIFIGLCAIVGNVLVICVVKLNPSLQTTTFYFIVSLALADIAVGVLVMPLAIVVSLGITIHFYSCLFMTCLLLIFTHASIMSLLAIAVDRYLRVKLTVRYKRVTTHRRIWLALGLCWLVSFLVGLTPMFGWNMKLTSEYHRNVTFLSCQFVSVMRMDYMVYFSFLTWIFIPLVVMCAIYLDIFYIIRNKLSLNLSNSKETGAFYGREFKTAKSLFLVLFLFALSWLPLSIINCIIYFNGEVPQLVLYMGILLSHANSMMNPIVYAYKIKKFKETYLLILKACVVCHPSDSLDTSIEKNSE

hCB1R = target: T8, hCB1R (Homo sapiens, UniProt P21554); experiment: biochemical; assay type: binding
T8 construct: host or cells: CHO
T8 sequence (P21554 whole entry): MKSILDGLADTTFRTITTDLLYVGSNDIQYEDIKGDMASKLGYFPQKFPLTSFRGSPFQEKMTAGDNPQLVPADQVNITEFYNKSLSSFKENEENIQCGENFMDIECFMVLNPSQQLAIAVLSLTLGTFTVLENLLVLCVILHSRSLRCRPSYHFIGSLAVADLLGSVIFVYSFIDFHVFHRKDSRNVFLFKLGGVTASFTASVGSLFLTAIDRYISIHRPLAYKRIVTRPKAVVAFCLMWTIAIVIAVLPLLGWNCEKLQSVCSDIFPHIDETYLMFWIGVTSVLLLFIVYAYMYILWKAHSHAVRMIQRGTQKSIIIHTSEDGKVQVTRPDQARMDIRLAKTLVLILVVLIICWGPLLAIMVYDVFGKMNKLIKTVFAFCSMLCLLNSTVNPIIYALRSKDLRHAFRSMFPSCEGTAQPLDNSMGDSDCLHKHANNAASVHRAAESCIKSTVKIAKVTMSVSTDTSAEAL

Rat recombinant TRPV4 = target: T9, Rat recombinant TRPV4 (Rattus norvegicus, UniProt Q9ERZ8); experiment: cell-based; assay type: cell-based; conditions: for IC50: vs 4αPDD 1μM, read-out: TRPV4 IC50 for desensitization
T9 construct: expressed in transfected cells; host or cells: HEK293 (TRPV4-HEK-293, gift from HB Bradshaw, Indiana University)
T9 sequence (Q9ERZ8 whole entry): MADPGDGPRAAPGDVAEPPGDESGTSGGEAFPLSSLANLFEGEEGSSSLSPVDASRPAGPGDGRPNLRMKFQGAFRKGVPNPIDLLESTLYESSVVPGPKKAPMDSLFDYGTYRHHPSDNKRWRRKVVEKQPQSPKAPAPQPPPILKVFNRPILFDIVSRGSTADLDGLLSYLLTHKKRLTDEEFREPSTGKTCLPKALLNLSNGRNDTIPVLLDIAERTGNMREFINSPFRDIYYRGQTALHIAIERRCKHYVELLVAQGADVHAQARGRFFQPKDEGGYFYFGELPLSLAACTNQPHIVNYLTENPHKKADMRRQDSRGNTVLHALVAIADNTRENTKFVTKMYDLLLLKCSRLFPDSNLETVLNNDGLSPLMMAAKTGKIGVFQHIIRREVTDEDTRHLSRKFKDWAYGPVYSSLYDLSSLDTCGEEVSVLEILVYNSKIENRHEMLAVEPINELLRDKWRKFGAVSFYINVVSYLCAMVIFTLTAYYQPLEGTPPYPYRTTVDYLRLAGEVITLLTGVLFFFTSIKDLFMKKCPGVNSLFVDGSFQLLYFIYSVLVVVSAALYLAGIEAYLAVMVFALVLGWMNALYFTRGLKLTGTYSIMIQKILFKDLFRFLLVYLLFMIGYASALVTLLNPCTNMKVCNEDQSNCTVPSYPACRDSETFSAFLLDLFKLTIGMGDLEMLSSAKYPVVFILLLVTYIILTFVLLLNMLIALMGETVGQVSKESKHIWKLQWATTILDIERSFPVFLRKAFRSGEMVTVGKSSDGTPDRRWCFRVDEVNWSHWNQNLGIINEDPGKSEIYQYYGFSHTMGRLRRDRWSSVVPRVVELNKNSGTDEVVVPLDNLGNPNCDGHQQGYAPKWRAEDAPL

kappa (KOP) = target: T10, kappa (KOP) (Rattus norvegicus, UniProt P34975); experiment: CEREP panel; assay type: binding; conditions: 10 µM
T10 construct: CEREP (contract assay)

PPARα (h) = target: T11, PPARα (h) (Homo sapiens, UniProt Q07869); experiment: CEREP panel; assay type: binding; conditions: for % inhibition PPARα (h): 10 µM
T11 construct: CEREP (contract assay)
T11 sequence (Q07869 1-468): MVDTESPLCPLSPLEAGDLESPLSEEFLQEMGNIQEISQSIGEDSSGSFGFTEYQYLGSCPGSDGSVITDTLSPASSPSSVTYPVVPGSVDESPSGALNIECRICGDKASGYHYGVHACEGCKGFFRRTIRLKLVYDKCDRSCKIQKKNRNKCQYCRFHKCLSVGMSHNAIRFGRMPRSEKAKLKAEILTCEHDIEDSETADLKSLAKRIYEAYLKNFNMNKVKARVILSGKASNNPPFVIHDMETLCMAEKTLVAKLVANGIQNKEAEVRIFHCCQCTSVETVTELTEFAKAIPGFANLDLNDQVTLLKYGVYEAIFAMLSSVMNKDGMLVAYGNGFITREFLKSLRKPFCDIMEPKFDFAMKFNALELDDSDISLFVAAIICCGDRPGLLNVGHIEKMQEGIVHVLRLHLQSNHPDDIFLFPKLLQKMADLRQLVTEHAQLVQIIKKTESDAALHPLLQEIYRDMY

mu (MOP) (h) = target: T12, mu (MOP) (h) (Homo sapiens, UniProt P35372); experiment: CEREP panel; assay type: binding; conditions: for % inhibition mu (MOP) (h): 10 µM
T12 construct: CEREP (contract assay)
T12 sequence (P35372 whole entry): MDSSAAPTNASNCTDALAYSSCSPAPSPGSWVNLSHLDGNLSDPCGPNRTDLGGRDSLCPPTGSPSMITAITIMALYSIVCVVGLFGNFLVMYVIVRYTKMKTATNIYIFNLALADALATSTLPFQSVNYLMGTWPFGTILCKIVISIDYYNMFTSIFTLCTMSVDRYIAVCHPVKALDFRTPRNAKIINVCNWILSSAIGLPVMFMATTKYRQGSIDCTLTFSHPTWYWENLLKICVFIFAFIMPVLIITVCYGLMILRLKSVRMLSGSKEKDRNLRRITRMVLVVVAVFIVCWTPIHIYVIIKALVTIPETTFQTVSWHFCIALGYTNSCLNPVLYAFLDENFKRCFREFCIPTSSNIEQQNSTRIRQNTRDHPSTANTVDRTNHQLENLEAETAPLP

NK1 (h) = target: T13, NK1 (h) (Homo sapiens, UniProt P25103); experiment: CEREP panel; assay type: binding; conditions: for % inhibition NK1 (h): 10 µM
T13 construct: CEREP (contract assay)
T13 sequence (P25103 whole entry): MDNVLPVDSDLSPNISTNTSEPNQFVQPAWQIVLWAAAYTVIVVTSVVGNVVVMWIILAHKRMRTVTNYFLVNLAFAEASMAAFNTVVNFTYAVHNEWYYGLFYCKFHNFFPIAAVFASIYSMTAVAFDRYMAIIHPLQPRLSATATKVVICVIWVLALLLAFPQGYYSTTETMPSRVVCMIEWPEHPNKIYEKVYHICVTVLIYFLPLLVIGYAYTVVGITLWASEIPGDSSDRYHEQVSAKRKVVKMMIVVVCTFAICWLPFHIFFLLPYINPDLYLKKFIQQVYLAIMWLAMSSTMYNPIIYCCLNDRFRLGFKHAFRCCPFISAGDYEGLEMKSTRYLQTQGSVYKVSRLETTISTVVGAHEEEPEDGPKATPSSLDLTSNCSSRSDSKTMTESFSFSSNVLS

[6] = read-out: TRPV1 IC50 for antagonism or desensitization
[7] = CHO membranes, Leiden, HU210 and SR144528 from Roche

SMILES | TRPV3 Efficacy (% ionomycin 4μM) (Rat recombinant TRPV3) [%] | IC50 (Rat recombinant TRPV3) [µM] | TRPA1 Efficacy (%AITC 100μM) (Rat recombinant TRPA1) | EC50 (Rat recombinant TRPA1) [µM] | IC50 (Rat recombinant TRPA1) [µM] | % inhibition beta 1 (h) (beta 1 (h)) [%] | CL microsomes human [1] [µL/min/mg protein] | TRPV1 Efficacy (% ionomycin 4μM) (Human recombinant TRPV1) [%] | IC50 (Human recombinant TRPV1; [6]) [µM] | CL microsomes mouse [2] [µL/min/mg protein] | % inhibition Na+ channel (site 2) (Na+ channel (site 2)) [%] | CL hepatocytes mouse [3] [µL/min/mio cells] | % inhibition PCP (PCP) [%] | P-gp (ER) mouse (mouse P-gp) | % inhibition norepinephrine transporter (h) [5] [%] | % inhibition A3 (h) (A3 (h)) [%] | TRPV4 Efficacy (% ionomycin 4μM) (Rat recombinant TRPV4) [%] | IC50 (Rat recombinant TRPV4) [µM] | % inhibition PPARα (h) (PPARα (h)) [%] | % inhibition mu (MOP) (h) (mu (MOP) (h)) [%] | further results
CN1CCCC[C@H]1Cn1cc(C(=O)c2cc([N+](=O)[O-])ccc2I)c2ccccc21 [(S)-AM1241] | 16.2 | > 50 | 47.5% | 5.8 | 40.9 | 14 | 152 | 12.0 | > 50 | 640 | 87 | 251 | 2 | 1.4 | 26 | 42 | < 10 | 8.6 ± 0.3 | -18 | 46 | EC50 (Rat recombinant TRPV3): 9 µM; EC50 (Human recombinant TRPV1): > 50 µM; % inhibition AR (h) (AR (h)): 1%; logD ([4]; distribution coefficient): 3.64; pKi ± SEM mCB1R (mCB1R; mouse brain membranes): 6.48 ± 0.08; pKi ± SEM hCB1R (hCB1R; [7]): < 5; % inhibition kappa (KOP) (kappa (KOP)): 87%
COc1ccc(C(=O)c2c(C)n(CCN3CCOCC3)c3cc(I)ccc23)cc1 [AM630] | < 10 | > 100 | 118.0% and 118±2% | 1.9 | 3.7 ± 0.5 | 9 | 82 | < 10 | > 100 | 468 | – | 101 | 9 | 1.3 | 38 | 76 | < 10 | 3.2 ± 0.1 | -17 | 21 | % inhibition AR (h) (AR (h)): -7%; logD ([4]; distribution coefficient): 3.82; pKi ± SEM mCB1R (mCB1R; mouse brain membranes): 5.6 ± 0.298; % inhibition kappa (KOP) (kappa (KOP)): 57%
CCCCCCC(C)(C)c1cc(OC)c([C@@H]2C=C(CO)[C@@H]3C[C@H]2C3(C)C)c(OC)c1 [HU308] | < 10 | > 100 | 43.1% | 18.5 | > 100 | – | – | < 10 | – | – | 30 | – | -9 | – | – | – | < 10 | > 100 | – | – | inhibition at 10 µM (beta 1 (h); read-out: % inhibition beta 1 (h)): -11%; IC50 (Human recombinant TRPV1; TRPV1 IC50 for antagonism or desensitization): 69 ± 5.7 µM; logD [4]: 4.29; Ki (mCB1R): 0.832 µM; inhibition at 10 µM ([5]; read-out: % inhibition norepinephrine transporter (h)): 33%; inhibition at 10 µM (A3 (h); read-out: % inhibition A3 (h)): -1%; Ki (hCB1R): > 10 µM; inhibition at 10 µM (NK1 (h); read-out: % inhibition NK1 (h)): 29%; inhibition at 10 µM (PPARα (h); read-out: % inhibition PPARα (h)): -21%; inhibition at 10 µM (mu (MOP) (h); read-out: % inhibition mu (MOP) (h)): 7%
CCCCCCC(C)(C)c1cc(OC)c(C2=C[C@H]3CC[C@]2(CO)C3(C)C)c(OC)c1 [HU910] | 31.3 | 12.9 | 33.1% | 53.1 | > 100 | -4 | 90 | < 10 | > 100 | 464 | 5 | 34 | -25 | 3.0 | 58 | 62 | < 10 | > 100 | -28 | 23 | EC50 (Rat recombinant TRPV3): 0.12 ± 0.05 µM; pKi ± SEM mCB1R (mCB1R; mouse brain membranes): 6.14±0.13; pKi ± SEM hCB1R (hCB1R; [7]): < 5; % inhibition NK1 (h) (NK1 (h)): 42%
CCCC(C)(C)c1ccc2c(c1)OC(C)(C)[C@@H]1CC=C(C)C[C@@H]21 [JWH133] | < 10 | 80.6 | 76.8% and 77 ± 4% and 76.8±3.8% | 8.5 ± 2.3 | 20 | -7 | 38 | 24.6 | 77.7 ± 3 | 63 | -20 | 9.8 | 2 | 1.7 | -9 | -26 | 13.6 | > 100 | -25 | 7 | EC50 (Human recombinant TRPV1): 8.2 µM; logD ([4]; distribution coefficient): > 3; pKi ± SEM mCB1R (mCB1R): 6.09 ± 0.13; pKi ± SEM hCB1R (hCB1R): < 5; EC50 (Rat recombinant TRPV4; read-out: TRPV4 Potency EC50): 12 µM; % inhibition NK1 (h) (NK1 (h)): 13%

Source: paper PMC5216056 (Nature Communications, 2017)
